Experimental data as given in patent US9347937B2, “Vaccine comprising Amb a 1 peptides for use in the treatment of ragweed allergy” (Circassia Limited, priority 2008, dated 2016).
No end group written: not given here.

Legend:
[1] = tested on: blood basophils from ragweed allergic subjects; assay: Histamine release assay (Immunotech Histamine Release Immunoassay kit); details: for Subjects with histamine release >15% of positive control: 43 or 20 subjects, highest dose tested 10 μg/ml
Protocol: Peptides or combinations of peptides that induce histamine release frequently may be considered unsuitable for inclusion in the peptide vaccine.
Histamine release requires the crosslinking of adjacent specific IgE molecules on the surface of the basophil.
Histamine release from fresh peripheral whole blood from ragweed allergic subjects was evaluated. Peripheral blood basophils were used as a surrogate for tissue mast cells which were not practical to assay.
Histamine release in response to whole ragweed allergen extract was measured in each subject to confirm basophil sensitisation. A positive control, representing total histamine release, generated by freeze/thawing the cells twice, was included in each assay. A negative control for spontaneous histamine release was generated by incubating cells in buffer only.
The assay was performed using the Immunotech Histamine Release Immunoassay kit according to the manufacturer's instructions. Following the in vitro challenge of blood basophils with peptides, peptide mixes, whole allergen or buffer in microtitre plate wells, supernatants were removed and the histamine in the samples converted to acyl histamine. Acylated samples were tested by a competitive acyl histamine ELISA.
Peptides were assayed for their ability to induce histamine release over a 5 log 10 range (1 to 10,000 ng/ml). The concentration range assayed was selected based on theoretical in vivo doses of peptide that may be achieved during therapy. […] Whole ragweed allergen extract was used over a slightly higher concentration range (10 to 100,000 ng/ml).
Single measurements were performed for each dilution. After completion of the ELISA, individual histamine levels were determined by interpolation from the standard curve generated in the ELISA assay. Results from samples were adjusted to allow for dilution.

[2] = In vitro solubility testing in an acidic environment; type: physicochemical
Protocol: Accordingly, the inventors have determined that RGW03B is preferred over RGW03.
The modified peptides were tested for solubility and their ability to induce IL-10 from PBMC in the presence of the mixture of peptides identified in FIG. 1 (RGW01+RGW03B+RGW04A+RGW02+RGW05+RGW06A). Controls included the peptide mixture with no RGW07 variant and with whole Amb a 1 allergen.

[3] = pH 2.97, Table 6, RGW07 and variants, acidic environment
[4] = pH 2.97 0.1 mM HCl, 0.5% (w/v) 1-thioglycerol (ca. 46 mM), 230 mM trehalose

Sequence	Maximum histamine release (% of positive control at 10 μg/mL) [1] [%]	Mean histamine release of 43 or 20 subjects as a % of positive control at 10 μg/mL [1] [%]	Subjects with histamine release >15% of positive control [1]	solubility in an acidic environment ([2]; acidic environment)	solubility [2, 3] [µg/mL]	solubility [2, 4] [µg/mL]
GMIKSNDGPPI [RGW01]	0	1	0/43	–	–	–
GEAAIKLTSSAGVLS [RGW07]	0	1	0/43	poor solubility	700	–
SAGMIPAEPGEA [RGW04A]	0	0	0/43	–	–	–
KEGTLRFAAAQNRP [RGW05]	0	0	0/43	–	–	–
KGEAAIKLTSSAGVLSKK [RGW07D]	0	3	0/20	–	4260	–
GSSQIWIDHSSLSKS [RGW02]	0	1	0/43	–	–	–
KDLLENGAIFVTSG [RGW03]	–	–	–	–	–	< 620
RDLLENGAIFLPSG [RGW03B]	0	1	0/43	–	–	3850
AINNDKTIDGRGAKVE [RGW06A]	0	1	0/43	–	–	–
KGEAAIKLTSSAGVLSK [RGW07C]	–	–	–	–	1550	–
